Test results as given in patent US10251395B2, “Substituted furano-/thienocycloalkylamino-2-pyrimidine derivatives and use thereof for controlling undesired plant growth” (Bayer CropScience Aktiengesellschaft, priority 2015, dated 2019).

What was measured:
[1] = test system: Abutilon theophrasti; test: Pre-emergence herbicidal effect; type: in vivo; details: scored visually after 3 weeks
Outline: (§1)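 After seeds are covered with sandy loam soil, the formulated compound is sprayed onto the soil surface as an aqueous suspension or emulsion containing 0.2% wetting agent. Three weeks later in the greenhouse, damage is rated by eye from 0% (like controls) to 100% (dead).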

[2] = test system: Alopecurus myosuroides; test: Pre-emergence herbicidal effect; type: in vivo; details: scored visually after 3 weeks
Outline: as §1

[3] = test system: Amaranthus retroflexus; test: Pre-emergence herbicidal effect; type: in vivo; details: scored visually after 3 weeks
Outline: as §1

[4] = test system: Avena fatua; test: Pre-emergence herbicidal effect; type: in vivo; details: scored visually after 3 weeks
Outline: as §1

[5] = test system: Echinochloa crus-galli; test: Pre-emergence herbicidal effect; type: in vivo; details: scored visually after 3 weeks
Outline: as §1

[6] = test system: Lolium multiflorum; test: Pre-emergence herbicidal effect; type: in vivo; details: scored visually after 3 weeks
Outline: as §1

[7] = test system: Matricaria inodora; test: Pre-emergence herbicidal effect; type: in vivo; details: scored visually after 3 weeks
Outline: as §1

[8] = test system: Polygonum convolvulus; test: Pre-emergence herbicidal effect; type: in vivo; details: scored visually after 3 weeks
Outline: as §1

[9] = test system: Setaria viridis; test: Pre-emergence herbicidal effect; type: in vivo; details: scored visually after 3 weeks
Outline: as §1

[10] = test system: Stellaria media; test: Pre-emergence herbicidal effect; type: in vivo; details: scored visually after 3 weeks
Outline: as §1

[11] = test system: Veronica persica; test: Pre-emergence herbicidal effect; type: in vivo; details: scored visually after 3 weeks
Outline: as §1

[12] = test system: Viola tricolor; test: Pre-emergence herbicidal effect; type: in vivo; details: scored visually after 3 weeks
Outline: as §1

[13] = test system: Abutilon theophrasti; test: Post-emergence herbicidal effect; type: in vivo; details: assessed visually after about 3 weeks vs untreated controls
Outline: (§2)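 Action, expressed in percent from 0 (like controls) to 100 (plants died), is read by eye about 3 weeks after foliar application. Applications use formulated product in water at 600–800 L/ha on one-leaf-stage plants sown in sandy loam.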

[14] = test system: Alopecurus myosuroides; test: Post-emergence herbicidal effect; type: in vivo; details: 320 g/ha, assessed visually after about 3 weeks vs untreated controls
Outline: as §2

[15] = test system: Amaranthus retroflexus; test: Post-emergence herbicidal effect; type: in vivo; details: assessed visually after about 3 weeks vs untreated controls
Outline: as §2

[16] = test system: Avena fatua; test: Post-emergence herbicidal effect; type: in vivo; details: 320 g/ha, assessed visually after about 3 weeks vs untreated controls
Outline: as §2

[17] = test system: Echinochloa crus-galli; test: Post-emergence herbicidal effect; type: in vivo; details: assessed visually after about 3 weeks vs untreated controls
Outline: as §2

[18] = test system: Ipomoea purpurea; test: Post-emergence herbicidal effect; type: in vivo; details: assessed visually after about 3 weeks vs untreated controls
Outline: as §2

[19] = test system: Matricaria inodora; test: Post-emergence herbicidal effect; type: in vivo; details: assessed visually after about 3 weeks vs untreated controls
Outline: as §2

[20] = test system: Polygonum convolvulus; test: Post-emergence herbicidal effect; type: in vivo; details: assessed visually after about 3 weeks vs untreated controls
Outline: as §2

[21] = test system: Setaria viridis; test: Post-emergence herbicidal effect; type: in vivo; details: assessed visually after about 3 weeks vs untreated controls
Outline: as §2

[22] = test system: Stellaria media; test: Post-emergence herbicidal effect; type: in vivo; details: assessed visually after about 3 weeks vs untreated controls
Outline: as §2

[23] = test system: Veronica persica; test: Post-emergence herbicidal effect; type: in vivo; details: assessed visually after about 3 weeks vs untreated controls
Outline: as §2

[24] = test system: Viola tricolor; test: Post-emergence herbicidal effect; type: in vivo; details: assessed visually after about 3 weeks vs untreated controls
Outline: as §2

[25] = test system: Lolium multiflorum; test: Post-emergence herbicidal effect; type: in vivo; details: assessed visually after about 3 weeks vs untreated controls
Outline: as §2

[26] = logP (HCOOH); type: physicochemical; details: HCOOH
Source text: Table 2 (physicochemical characterization of selected synthesis examples)

Structure (SMILES): Cc1cc2c(s1)CCCC2Nc1ncc(C(F)(F)F)c(N)n1 (racemic) [compound 11]
- ABUTH pre-emergence efficacy (herbicidal activity) ([1]; Dosage 80 g/ha): 100%
- ALOMY pre-emergence efficacy (herbicidal activity) ([2]; Dosage 80 g/ha): 90%
- ALOMY pre-emergence efficacy (herbicidal activity) ([2]; Dosage 320 g/ha): 100%
- AMARE pre-emergence efficacy (herbicidal activity) ([3]; Dosage 80 g/ha): 100%
- AMARE pre-emergence efficacy (herbicidal activity) ([3]; Dosage 320 g/ha): 100%
- AVEFA pre-emergence efficacy (herbicidal activity) ([4]; Dosage 80 g/ha): 60%
- AVEFA pre-emergence efficacy (herbicidal activity) ([4]; Dosage 320 g/ha): 90%
- ECHCG pre-emergence efficacy (herbicidal activity) ([5]; Dosage 80 g/ha): 100%
- ECHCG pre-emergence efficacy (herbicidal activity) ([5]; Dosage 320 g/ha): 100%
- LOLMU pre-emergence efficacy (herbicidal activity) ([6]; Dosage 80 g/ha): 100%
- LOLMU pre-emergence efficacy (herbicidal activity) ([6]; Dosage 320 g/ha): 100%
- MATIN pre-emergence efficacy (herbicidal activity) ([7]; Dosage 80 g/ha): 100%
- MATIN pre-emergence efficacy (herbicidal activity) ([7]; Dosage 320 g/ha): 100%
- POLCO pre-emergence efficacy (herbicidal activity) ([8]; Dosage 80 g/ha): 100%
- POLCO pre-emergence efficacy (herbicidal activity) ([8]; Dosage 320 g/ha): 100%
- SETVI pre-emergence efficacy (herbicidal activity) ([9]; Dosage 80 g/ha): 100%
- SETVI pre-emergence efficacy (herbicidal activity) ([9]; Dosage 320 g/ha): 100%
- STEME pre-emergence efficacy (herbicidal activity) ([10]; Dosage 80 g/ha): 100%
- STEME pre-emergence efficacy (herbicidal activity) ([10]; Dosage 320 g/ha): 100%
- VERPE pre-emergence efficacy (herbicidal activity) ([11]; Dosage 80 g/ha): 100%
- VERPE pre-emergence efficacy (herbicidal activity) ([11]; Dosage 320 g/ha): 100%
- VIOTR pre-emergence efficacy (herbicidal activity) ([12]; Dosage 80 g/ha): 100%
- VIOTR pre-emergence efficacy (herbicidal activity) ([12]; Dosage 320 g/ha): 100%
- post-emergence efficacy ABUTH ([13]; 80 g/ha): 100%
- post-emergence efficacy ABUTH ([13]; 320 g/ha): 100%
- post-emergence efficacy ALOMY [14]: 90%
- post-emergence efficacy AMARE ([15]; 80 g/ha): 90%
- post-emergence efficacy AMARE ([15]; 320 g/ha): 90%
- post-emergence efficacy AVEFA [16]: 80%
- post-emergence efficacy ECHCG ([17]; 80 g/ha): 100%
- post-emergence efficacy ECHCG ([17]; 320 g/ha): 100%
- post-emergence efficacy PHBPU ([18]; 80 g/ha): 90%
- post-emergence efficacy PHBPU ([18]; 320 g/ha): 90%
- post-emergence efficacy MATIN ([19]; 80 g/ha): 90%
- post-emergence efficacy MATIN ([19]; 320 g/ha): 100%
- post-emergence efficacy POLCO ([20]; 80 g/ha): 90%
- post-emergence efficacy POLCO ([20]; 320 g/ha): 90%
- post-emergence efficacy SETVI ([21]; 80 g/ha): 90%
- post-emergence efficacy SETVI ([21]; 320 g/ha): 90%
- post-emergence efficacy STEME ([22]; 80 g/ha): 90%
- post-emergence efficacy STEME ([22]; 320 g/ha): 100%
- post-emergence efficacy VERPE ([23]; 80 g/ha): 80%
- post-emergence efficacy VERPE ([23]; 320 g/ha): 90%
- post-emergence efficacy VIOTR ([24]; 80 g/ha): 100%
- post-emergence efficacy VIOTR ([24]; 320 g/ha): 100%

Structure (SMILES): Cc1cc2c(s1)CC(C)C2Nc1ncc(S(C)(=O)=O)c(N)n1 (racemic) [compound 17]
- ABUTH pre-emergence efficacy (herbicidal activity) ([1]; Dosage 80 g/ha): 80%
- ABUTH pre-emergence efficacy (herbicidal activity) ([1]; Dosage 320 g/ha): 100%
- ALOMY pre-emergence efficacy (herbicidal activity) ([2]; Dosage 320 g/ha): 100%
- AMARE pre-emergence efficacy (herbicidal activity) ([3]; Dosage 80 g/ha): 100%
- AMARE pre-emergence efficacy (herbicidal activity) ([3]; Dosage 320 g/ha): 100%
- ECHCG pre-emergence efficacy (herbicidal activity) ([5]; Dosage 80 g/ha): 100%
- ECHCG pre-emergence efficacy (herbicidal activity) ([5]; Dosage 320 g/ha): 100%
- MATIN pre-emergence efficacy (herbicidal activity) ([7]; Dosage 80 g/ha): 100%
- MATIN pre-emergence efficacy (herbicidal activity) ([7]; Dosage 320 g/ha): 100%
- POLCO pre-emergence efficacy (herbicidal activity) ([8]; Dosage 320 g/ha): 100%
- SETVI pre-emergence efficacy (herbicidal activity) ([9]; Dosage 80 g/ha): 60%
- SETVI pre-emergence efficacy (herbicidal activity) ([9]; Dosage 320 g/ha): 100%
- STEME pre-emergence efficacy (herbicidal activity) ([10]; Dosage 80 g/ha): 100%
- STEME pre-emergence efficacy (herbicidal activity) ([10]; Dosage 320 g/ha): 100%
- VERPE pre-emergence efficacy (herbicidal activity) ([11]; Dosage 80 g/ha): 100%
- VERPE pre-emergence efficacy (herbicidal activity) ([11]; Dosage 320 g/ha): 100%
- VIOTR pre-emergence efficacy (herbicidal activity) ([12]; Dosage 80 g/ha): 100%
- VIOTR pre-emergence efficacy (herbicidal activity) ([12]; Dosage 320 g/ha): 100%
- post-emergence efficacy ABUTH ([13]; 320 g/ha): 100%
- post-emergence efficacy ALOMY [14]: 90%
- post-emergence efficacy AMARE ([15]; 320 g/ha): 100%
- post-emergence efficacy AVEFA [16]: 100%
- post-emergence efficacy ECHCG ([17]; 80 g/ha): 80%
- post-emergence efficacy ECHCG ([17]; 320 g/ha): 100%
- post-emergence efficacy PHBPU ([18]; 320 g/ha): 0%
- post-emergence efficacy LOLMU ([25]; 80 g/ha): 90%
- post-emergence efficacy LOLMU ([25]; 320 g/ha): 100%
- post-emergence efficacy MATIN ([19]; 320 g/ha): 80%
- post-emergence efficacy POLCO ([20]; 80 g/ha): 80%
- post-emergence efficacy POLCO ([20]; 320 g/ha): 80%
- post-emergence efficacy SETVI ([21]; 320 g/ha): 100%
- post-emergence efficacy STEME ([22]; 320 g/ha): 100%
- post-emergence efficacy VERPE ([23]; 320 g/ha): 100%
- post-emergence efficacy VIOTR ([24]; 320 g/ha): 90%
- logP (HCOOH) [26]: oily; logP (HCOOH): 2.11; 1H NMR (CDCl3, 400 MHZ, δ in ppm): 1.30 (d, 3H, 3H of
